According to patent US10160747B2, “Compounds and methods for kinase modulation, and indications therefor” (Plexxikon Inc., priority 2016, dated 2018):

Legend:
Assay type in all cases: biochemical
[1] = target: CSF1R (Homo sapiens, UniProt P07333); assay: CSF1R 100 ATP 8 pt kinase assay (Table 6)
Description: The following Table 6 provides data indicating FLT3 ITD, D835Y and F691L; c-KIT and CSF1R biochemical and/or cell inhibitory activity for exemplary compounds as described herein.

[2] = target: T1, c-KIT (Homo sapiens, UniProt P10721); assay: c-KIT recombinant enzyme kinase assay (AlphaScreen); details: 100 ATP, 8 pt
T1 construct: purchased Millipore 14-559K
Method in brief: (§1)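 Enzyme plus biotinylated poly(Glu4-Tyr) substrate (30 nM) mixed with compound, then ATP added. Donor beads went in for 20 min at room temperature, then PY20 acceptor beads for 60 min. AlphaScreen read; ATP was 10 μM for FLT3-ITD/D835Y and 100 μM for c-KIT.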

[3] = target: T2, FLT3-D835Y (Homo sapiens, UniProt P36888, D835Y); assay: FLT3-D835Y recombinant enzyme kinase assay (AlphaScreen); details: 8 pt, GMean
T2 construct: purchased Invitrogen PV3967
T2 sequence (P36888 27-993 D835Y): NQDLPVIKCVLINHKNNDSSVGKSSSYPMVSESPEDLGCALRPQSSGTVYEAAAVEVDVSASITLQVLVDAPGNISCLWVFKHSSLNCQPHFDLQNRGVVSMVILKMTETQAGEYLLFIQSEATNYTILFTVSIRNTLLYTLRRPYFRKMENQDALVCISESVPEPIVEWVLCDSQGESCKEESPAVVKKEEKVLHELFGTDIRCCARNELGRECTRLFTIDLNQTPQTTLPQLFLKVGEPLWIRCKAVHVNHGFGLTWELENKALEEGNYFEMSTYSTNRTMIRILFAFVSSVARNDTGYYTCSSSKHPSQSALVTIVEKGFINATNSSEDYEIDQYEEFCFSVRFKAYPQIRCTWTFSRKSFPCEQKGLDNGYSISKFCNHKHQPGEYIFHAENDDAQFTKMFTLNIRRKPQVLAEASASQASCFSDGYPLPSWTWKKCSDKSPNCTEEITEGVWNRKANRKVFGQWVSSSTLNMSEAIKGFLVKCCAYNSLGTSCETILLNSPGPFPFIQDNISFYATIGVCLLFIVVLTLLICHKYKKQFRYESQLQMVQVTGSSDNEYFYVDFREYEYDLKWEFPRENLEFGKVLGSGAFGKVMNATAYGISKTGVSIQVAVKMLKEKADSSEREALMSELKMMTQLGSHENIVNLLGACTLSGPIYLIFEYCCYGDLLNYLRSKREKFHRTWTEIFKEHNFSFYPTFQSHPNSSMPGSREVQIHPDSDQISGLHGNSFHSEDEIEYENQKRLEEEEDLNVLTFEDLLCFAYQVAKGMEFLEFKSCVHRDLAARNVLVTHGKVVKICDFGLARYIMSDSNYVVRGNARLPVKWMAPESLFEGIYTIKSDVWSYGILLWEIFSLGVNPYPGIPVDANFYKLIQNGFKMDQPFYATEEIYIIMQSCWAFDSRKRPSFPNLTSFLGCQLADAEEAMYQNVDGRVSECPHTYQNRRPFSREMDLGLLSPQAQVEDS
Method in brief: as §1

T1 sequence (P10721 26-976): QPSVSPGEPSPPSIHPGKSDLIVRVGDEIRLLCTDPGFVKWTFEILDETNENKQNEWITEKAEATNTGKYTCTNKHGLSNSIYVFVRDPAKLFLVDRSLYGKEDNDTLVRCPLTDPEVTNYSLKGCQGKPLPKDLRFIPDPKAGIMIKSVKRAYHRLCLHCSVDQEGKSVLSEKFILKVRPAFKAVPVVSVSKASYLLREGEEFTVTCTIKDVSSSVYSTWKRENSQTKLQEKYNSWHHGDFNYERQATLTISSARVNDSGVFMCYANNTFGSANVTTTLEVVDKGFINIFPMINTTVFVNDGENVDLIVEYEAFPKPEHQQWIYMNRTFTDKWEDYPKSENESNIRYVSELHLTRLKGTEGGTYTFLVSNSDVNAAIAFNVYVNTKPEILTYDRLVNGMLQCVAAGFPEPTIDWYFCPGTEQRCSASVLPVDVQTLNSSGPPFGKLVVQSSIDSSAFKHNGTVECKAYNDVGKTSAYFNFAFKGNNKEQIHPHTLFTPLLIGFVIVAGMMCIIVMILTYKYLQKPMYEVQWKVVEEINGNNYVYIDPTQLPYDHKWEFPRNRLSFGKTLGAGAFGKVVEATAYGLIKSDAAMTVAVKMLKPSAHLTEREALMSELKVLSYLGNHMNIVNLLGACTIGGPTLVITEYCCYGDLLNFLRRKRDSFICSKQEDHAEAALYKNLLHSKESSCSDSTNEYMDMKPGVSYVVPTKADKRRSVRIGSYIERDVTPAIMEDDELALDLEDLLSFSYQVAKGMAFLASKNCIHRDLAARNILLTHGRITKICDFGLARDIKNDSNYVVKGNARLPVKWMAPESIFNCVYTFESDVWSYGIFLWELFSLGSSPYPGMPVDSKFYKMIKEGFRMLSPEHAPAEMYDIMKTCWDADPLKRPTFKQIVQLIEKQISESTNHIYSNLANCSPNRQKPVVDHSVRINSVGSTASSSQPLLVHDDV
Chain of CSF1R (P07333 20-972, species assumed): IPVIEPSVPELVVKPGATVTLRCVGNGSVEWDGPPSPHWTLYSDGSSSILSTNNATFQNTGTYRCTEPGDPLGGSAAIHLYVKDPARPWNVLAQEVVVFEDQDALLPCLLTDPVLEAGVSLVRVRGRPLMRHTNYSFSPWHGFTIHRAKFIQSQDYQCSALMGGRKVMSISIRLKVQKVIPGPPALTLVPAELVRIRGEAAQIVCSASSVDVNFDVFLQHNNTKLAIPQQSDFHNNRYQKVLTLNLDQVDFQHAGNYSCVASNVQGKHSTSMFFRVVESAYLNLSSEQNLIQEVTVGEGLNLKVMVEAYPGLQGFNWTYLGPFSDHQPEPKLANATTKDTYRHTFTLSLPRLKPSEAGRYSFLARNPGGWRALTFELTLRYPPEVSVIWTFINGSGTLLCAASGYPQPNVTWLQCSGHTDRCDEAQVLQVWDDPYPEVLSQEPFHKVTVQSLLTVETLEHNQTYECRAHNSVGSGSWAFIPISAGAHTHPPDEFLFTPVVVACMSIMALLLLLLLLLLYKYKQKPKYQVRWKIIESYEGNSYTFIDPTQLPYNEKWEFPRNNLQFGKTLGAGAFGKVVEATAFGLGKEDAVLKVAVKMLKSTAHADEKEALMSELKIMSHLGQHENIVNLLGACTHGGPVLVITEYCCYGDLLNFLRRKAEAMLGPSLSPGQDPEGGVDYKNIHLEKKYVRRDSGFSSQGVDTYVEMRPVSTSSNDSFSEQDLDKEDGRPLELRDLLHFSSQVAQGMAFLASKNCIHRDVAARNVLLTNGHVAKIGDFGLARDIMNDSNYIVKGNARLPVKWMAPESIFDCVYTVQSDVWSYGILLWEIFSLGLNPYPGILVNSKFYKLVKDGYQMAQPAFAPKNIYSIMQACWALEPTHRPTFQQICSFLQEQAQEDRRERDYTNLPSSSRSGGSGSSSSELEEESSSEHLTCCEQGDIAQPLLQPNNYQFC

Compound | IC50 [1] [µM] | IC50 [2] [µM] | IC50 [3] [µM]
COc1ncc(NC(=O)Cc2ccc(-c3cnc(Nc4cnn(C5CC5)c4)nc3)cc2F)cc1C(F)(F)F [Compound P-0241, 2-[4-[2-[(1-cyclopropylpyrazol-4-yl)amino]pyrimidin-5-yl]-2-fluoro-phenyl]-N-[6-methoxy-5-(trifluoromethyl)-3-pyridyl]acetamide] |  | 0.0001 to 10 | 0.0001 to 10
CCn1cc(Nc2ncc(-c3ccc(CC(=O)Nc4cnc(OC)c(C(F)(F)F)c4)c(F)c3)cn2)cn1 [Compound P-0259, 2-[4-[2-[(1-ethylpyrazol-4-yl)amino]pyrimidin-5-yl]-2-fluoro-phenyl]-N-[6-methoxy-5-(trifluoromethyl)-3-pyridyl]acetamide] |  | 0.0001 to 10 | 0.0001 to 10
COCCn1cc(Nc2ncc(-c3ccc(CC(=O)Nc4ccc(C(F)(F)F)nc4)c(F)c3)cn2)cn1 [Compound P-0268, 2-[2-fluoro-4-[2-[[1-(2-methoxyethyl)pyrazol-4-yl]amino]pyrimidin-5-yl]phenyl]-N-[6-(trifluoromethyl)-3-pyridyl]acetamide] |  | 0.0001 to 10 | 0.0001 to 10
Cc1ncc(NC(=O)Cc2ccc(-c3cnc(Nc4cnn(C5CC5)c4)nc3)cc2)cc1C(F)(F)F [Compound P-0232, 2-[4-[2-[(1-cyclopropylpyrazol-4-yl)amino]pyrimidin-5-yl]phenyl]-N-[6-methyl-5-(trifluoromethyl)-3-pyridyl]acetamide] |  | 0.0001 to 10 | 0.0001 to 10
Cc1ncc(NC(=O)Cc2ccc(-c3cnc(Nc4cnn(C5CC5)c4)nc3)cc2F)cc1C(F)(F)F [Compound P-0239, 2-[4-[2-[(1-cyclopropylpyrazol-4-yl)amino]pyrimidin-5-yl]-2-fluoro-phenyl]-N-[6-methyl-5-(trifluoromethyl)-3-pyridyl]acetamide] |  | 0.0001 to 10 | 0.0001 to 10
CCn1cc(Nc2ncc(-c3ccc(CC(=O)Nc4cc(C(F)(F)F)ccn4)cc3)cn2)cn1 [Compound P-0250, 2-[4-[2-[(1-ethylpyrazol-4-yl)amino]pyrimidin-5-yl]phenyl]-N-[4-(trifluoromethyl)-2-pyridyl]acetamide] |  | 0.0001 to 10 | 0.0001 to 10
CCn1cc(Nc2ncc(-c3ccc(CC(=O)Nc4ccc(C(F)(F)F)cn4)cc3)cn2)cn1 [Compound P-0251, 2-[4-[2-[(1-ethylpyrazol-4-yl)amino]pyrimidin-5-yl]phenyl]-N-[5-(trifluoromethyl)-2-pyridyl]acetamide] |  | 0.0001 to 10 | 0.0001 to 10
COc1ncc(NC(=O)Cc2ccc(-c3cnc(Nc4cnn(C5CC5)c4)nc3)cc2)cc1C(F)(F)F [Compound P-0234, 2-[4-[2-[(1-cyclopropylpyrazol-4-yl)amino]pyrimidin-5-yl]phenyl]-N-[6-methoxy-5-(trifluoromethyl)-3-pyridyl]acetamide] |  | 0.0001 to 10 | 0.0001 to 10
Cn1cc(Nc2ncc(-c3cc(F)c(CC(=O)Nc4cncc(C(F)(F)F)c4)cc3F)cn2)cn1 [Compound P-0207, 2-[2,5-difluoro-4-[2-[(1-methylpyrazol-4-yl)amino]pyrimidin-5-yl]phenyl]-N-[5-(trifluoromethyl)-3-pyridyl]acetamide] |  | 0.0001 to 10 | 0.0001 to 10
COc1ncc(NC(=O)Cc2ccc(-c3cnc(Nc4cn[nH]c4C)nc3)cc2)cc1C(F)(F)F [Compound P-0221, N-[6-methoxy-5-(trifluoromethyl)-3-pyridyl]-2-[4-[2-[(5-methyl-1H-pyrazol-4-yl)amino]pyrimidin-5-yl]phenyl]acetamide] |  | 0.0001 to 10 | 0.0001 to 10
O=C(Cc1ccc(-c2cnc(Nc3cnn(C4CC4)c3)nc2)cc1)Nc1cncc(C(F)(F)F)c1 [Compound P-0231, 2-[4-[2-[(1-cyclopropylpyrazol-4-yl)amino]pyrimidin-5-yl]phenyl]-N-[5-(trifluoromethyl)-3-pyridyl]acetamide] |  | 0.0001 to 10 | 0.0001 to 10

Further lines, results first:

IC50 [1] [µM] | IC50 [2] [µM] | IC50 [3] [µM] | Compound
0.0001 to 10 | 0.0001 to 10 | 0.0001 to 10 | Cc1ncc(NC(=O)Cc2ccc(-c3cnc4[nH]c(C#CC(C)(C)O)cc4c3)cc2)cc1C(F)(F)F [Compound P-0220, 2-[4-[2-(3-hydroxy-3-methyl-but-1-ynyl)-1H-pyrrolo[2,3-b]pyridin-5-yl]phenyl]-N-[6-methyl-5-(trifluoromethyl)-3-pyridyl]acetamide]
 | 0.0001 to 10 | 0.0001 to 10 | COc1ncc(NC(=O)Cc2ccc(-c3cnc(Nc4cnn(C(F)F)c4)nc3)cc2)cc1C(F)(F)F [Compound P-0211, 2-[4-[2-[[1-(difluoromethyl)pyrazol-4-yl]amino]pyrimidin-5-yl]phenyl]-N-[6-methoxy-5-(trifluoromethyl)-3-pyridyl]acetamide]
 | 0.0001 to 10 | 0.0001 to 10 | CCn1cc(Nc2ncc(-c3ccc(CC(=O)Nc4ccc(C(F)(F)F)nc4)cc3)cn2)cn1 [Compound P-0252, 2-[4-[2-[(1-ethylpyrazol-4-yl)amino]pyrimidin-5-yl]phenyl]-N-[6-(trifluoromethyl)-3-pyridyl]acetamide]
 | 0.0001 to 10 | 0.0001 to 10 | O=C(Cc1ccc(-c2cnc(Nc3cnn(C4CC4)c3)nc2)cc1F)Nc1cncc(C(F)(F)F)c1 [Compound P-0238, 2-[4-[2-[(1-cyclopropylpyrazol-4-yl)amino]pyrimidin-5-yl]-2-fluoro-phenyl]-N-[5-(trifluoromethyl)-3-pyridyl]acetamide]
 | 0.0001 to 10 | 0.0001 to 10 | CCn1cc(Nc2ncc(-c3ccc(CC(=O)Nc4cnc(C)c(C(F)(F)F)c4)c(F)c3)cn2)cn1 [Compound P-0261, 2-[4-[2-[(1-ethylpyrazol-4-yl)amino]pyrimidin-5-yl]-2-fluoro-phenyl]-N-[6-methyl-5-(trifluoromethyl)-3-pyridyl]acetamide]
 | 0.0001 to 10 | 0.0001 to 10 | Cn1cc(Nc2ncc(-c3cc(F)c(CC(=O)Nc4cc(C(F)(F)F)ccn4)cc3F)cn2)cn1 [Compound P-0019, 2-[2,5-difluoro-4-[2-[(1-methylpyrazol-4-yl)amino]pyrimidin-5-yl]phenyl]-N-[4-(trifluoromethyl)-2-pyridyl]acetamide]
 | 0.0001 to 10 | 0.0001 to 10 | O=C(Cc1ccc(-c2cnc(Nc3cnn(C4CC4)c3)nc2)cc1F)Nc1cc(C(F)(F)F)ccn1 [Compound P-0244, 2-[4-[2-[(1-cyclopropylpyrazol-4-yl)amino]pyrimidin-5-yl]-2-fluoro-phenyl]-N-[4-(trifluoromethyl)-2-pyridyl]acetamide]
 | 0.0001 to 10 | 0.0001 to 10 | CCn1cc(Nc2ncc(-c3ccc(CC(=O)Nc4cc(C(F)(F)F)ccn4)c(F)c3)cn2)cn1 [Compound P-0255, 2-[4-[2-[(1-ethylpyrazol-4-yl)amino]pyrimidin-5-yl]-2-fluoro-phenyl]-N-[4-(trifluoromethyl)-2-pyridyl]acetamide]
 | 0.0001 to 10 | 0.0001 to 10 | COc1ncc(NC(=O)Cc2ccc(-c3cnc4[nH]nc(N)c4c3)c(F)c2)cc1C(F)(F)F [Compound P-0203, 2-[4-(3-amino-1H-pyrazolo[3,4-b]pyridin-5-yl)-3-fluoro-phenyl]-N-[6-methoxy-5-(trifluoromethyl)-3-pyridyl]acetamide]
 | 0.0001 to 10 | 0.0001 to 10 | COCCn1cc(Nc2ncc(-c3ccc(CC(=O)Nc4cncc(C(F)(F)F)c4)c(F)c3)cn2)cn1 [Compound P-0267, 2-[2-fluoro-4-[2-[[1-(2-methoxyethyl)pyrazol-4-yl]amino]pyrimidin-5-yl]phenyl]-N-[5-(trifluoromethyl)-3-pyridyl]acetamide]
 | 0.0001 to 10 | 0.0001 to 10 | Cn1cnc(Nc2ncc(-c3ccc(CC(=O)Nc4cc(C(F)(F)F)ccn4)cc3)cn2)c1 [Compound P-0022, 2-[4-[2-[(1-methylimidazol-4-yl)amino]pyrimidin-5-yl]phenyl]-N-[4-(trifluoromethyl)-2-pyridyl]acetamide]
 | 0.0001 to 10 | 0.0001 to 10 | COCCn1cc(Nc2ncc(-c3ccc(CC(=O)Nc4cnc(OC)c(C(F)(F)F)c4)c(F)c3)cn2)cn1 [Compound P-0265, 2-[2-fluoro-4-[2-[[1-(2-methoxyethyl)pyrazol-4-yl]amino]pyrimidin-5-yl]phenyl]-N-[6-methoxy-5-(trifluoromethyl)-3-pyridyl]acetamide]
